Where two headings read alike, the source gives them in different places.
Target: T1, WIZ (Homo sapiens, UniProt O95785+Q96SW2)
T1 construct: expressed in transfected cells
Assay: Quantification of WIZ protein levels in HiBit tag fusion protein assay (293T cells)
Type: cell-based
Design: Dmax: dose or concentration left out as unconfirmed
Details: for remaining activity at 25 µM / Dmax at 25 µM / Dmax: HEK-293T; for remaining activity at 25 µM: read-out: WIZ Amax; for Dmax at 25 µM / % degradation of WIZ (100 − Amax): 100 − Amax, at 25 uM; for Dmax at 25 µM / Dmax: read-out: % degradation of WIZ (100 − Amax); for DC50: WIZ HiBit assay in 293T cells, about 18 hours, 10-point 5-fold dilution, top 25 μM, read-out: WIZ AC50
Description: The HiBit system from Promega was used to develop high-throughput and quantitative assays to measure changes in WIZ protein levels in response to compounds. The HiBit tag was derived from a split Nanoluciferase and has the following protein sequence: […] (SEQ ID NO: 1). The complementary fragment of Nanoluciferase (known as LgBit, from Promega), was added to the HiBit tag to form an active Nanoluciferase enzyme whose activity can be precisely measured. In this way, the levels of a fusion protein with the HiBit tag can be quantified in cell lysates.
Lentiviral vectors, based on the Invitrogen™ pLenti6.2/V5 DEST backbone were constructed that places the HiBit tag upstream of WIZ and expressed the fusion protein from an HSVTK promotor.
To ensure moderate and consistent expression of the HiBit-WIZ fusion protein across all cells in the population, stable cell lines were constructed from cells harboring a single copy of the construct. Lentivirus packaged with the constructs were made using the ViraPowerTMkit from Invitrogen™. 293T cells from ATCC (Catalog number: CRL-3216), were infected with the virus at low multiplicity of infection and selected by 5 μg/mL blasticidin in culture media for 2 weeks.
The levels of HiBit-WIZ tagged fusion proteins in compound-treated cell lines were measured as follows:
On day 1, cells were diluted to 1.0×10^6 cells/ml in normal growth medium. 20 μL of cell suspension were plated in each well of a solid white 384-well plate. Plates were incubated overnight in a 37° C. and 5% CO2 humidified tissue culture incubator.
On day 2, serial dilutions of compounds were made in 384-well plates. Compound plates were set up with DMSO in columns 1, 2, 23, 24, and 10-point compound dilution series in column 3-12 and column 13-22. 10 mM stock solution of compound were placed into column 3 or 13 and a 1:5 serial dilution was carried out until there was a 10-point dilution series per compound. 50 nL of diluted compounds were transferred into the plated cells by Echo® (Labcyte) acoustic transfer. The highest concentration of compound was 25 μM. Plates were incubated overnight (about 18 hours) in a 37° C. and 5% CO2 humidified tissue culture incubator.
On day 3, plates were removed from the incubator and allowed to equilibrate at room temperature for 60 minutes. HiBit substrate (Nano-Glo® HiBit Lytic Detection System, Promega Catalogue number: N3050) was added as described by the manufacturers protocols. Plates were incubated at room temperature for 30 minutes and luminescence was read using an EnVision® reader (PerkinElmer®). Data was analyzed and visualized using the Spotfire® software package.
WIZ Amax reflects the DMSO-normalized, curve-fitted percentage of WIZ-HiBit remaining at 25 uM. It was calculated by normalizing DMSO controls to 100%, parametric curve fitting of the dose response data (10-point, 5-fold), followed by calculation of response at 25 uM using the fitted equation.

[1] = DMSO-normalized, curve-fitted percentage of WIZ-HiBit remaining at 25 uM

T1 sequence (O95785 whole entry): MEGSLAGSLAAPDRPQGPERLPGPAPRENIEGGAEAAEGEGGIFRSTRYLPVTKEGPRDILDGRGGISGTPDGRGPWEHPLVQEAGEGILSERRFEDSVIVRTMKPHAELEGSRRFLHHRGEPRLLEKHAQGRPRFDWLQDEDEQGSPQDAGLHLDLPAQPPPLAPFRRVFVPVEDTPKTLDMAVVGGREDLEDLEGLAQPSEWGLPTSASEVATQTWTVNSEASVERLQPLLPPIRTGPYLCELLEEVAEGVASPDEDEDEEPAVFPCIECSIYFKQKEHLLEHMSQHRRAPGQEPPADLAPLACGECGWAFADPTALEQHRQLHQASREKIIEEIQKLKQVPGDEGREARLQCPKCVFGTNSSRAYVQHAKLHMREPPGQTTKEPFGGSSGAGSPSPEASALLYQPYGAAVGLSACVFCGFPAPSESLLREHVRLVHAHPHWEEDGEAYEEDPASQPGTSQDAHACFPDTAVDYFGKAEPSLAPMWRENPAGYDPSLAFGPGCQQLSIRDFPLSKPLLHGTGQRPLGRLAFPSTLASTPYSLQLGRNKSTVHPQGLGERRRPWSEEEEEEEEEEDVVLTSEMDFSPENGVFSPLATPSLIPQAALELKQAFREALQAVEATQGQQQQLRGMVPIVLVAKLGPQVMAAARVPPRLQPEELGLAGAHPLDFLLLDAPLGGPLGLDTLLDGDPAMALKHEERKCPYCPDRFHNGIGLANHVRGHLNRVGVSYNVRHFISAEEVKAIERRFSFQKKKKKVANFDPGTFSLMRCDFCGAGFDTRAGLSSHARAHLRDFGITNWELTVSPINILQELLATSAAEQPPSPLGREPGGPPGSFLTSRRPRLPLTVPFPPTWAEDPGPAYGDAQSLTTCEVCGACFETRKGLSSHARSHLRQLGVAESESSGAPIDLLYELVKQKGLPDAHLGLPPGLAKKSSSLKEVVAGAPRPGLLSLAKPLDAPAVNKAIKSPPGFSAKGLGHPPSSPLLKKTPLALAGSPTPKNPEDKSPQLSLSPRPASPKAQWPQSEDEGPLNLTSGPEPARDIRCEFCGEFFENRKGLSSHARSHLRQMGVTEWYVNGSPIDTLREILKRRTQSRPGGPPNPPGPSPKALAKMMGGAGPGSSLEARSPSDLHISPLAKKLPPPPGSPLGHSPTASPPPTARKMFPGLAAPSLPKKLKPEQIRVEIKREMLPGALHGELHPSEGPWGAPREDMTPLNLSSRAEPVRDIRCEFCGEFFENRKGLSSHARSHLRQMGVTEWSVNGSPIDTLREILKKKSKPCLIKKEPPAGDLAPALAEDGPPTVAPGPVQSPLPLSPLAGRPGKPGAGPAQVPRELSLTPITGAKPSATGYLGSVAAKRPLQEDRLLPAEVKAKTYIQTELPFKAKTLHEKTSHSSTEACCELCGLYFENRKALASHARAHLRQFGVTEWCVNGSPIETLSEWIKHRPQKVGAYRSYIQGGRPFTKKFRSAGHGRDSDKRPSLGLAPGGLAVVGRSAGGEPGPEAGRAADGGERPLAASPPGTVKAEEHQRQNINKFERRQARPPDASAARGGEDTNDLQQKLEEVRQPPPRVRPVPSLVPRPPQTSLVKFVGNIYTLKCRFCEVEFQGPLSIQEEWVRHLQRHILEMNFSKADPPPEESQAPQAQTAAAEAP
T1 sequence (Q96SW2 whole entry): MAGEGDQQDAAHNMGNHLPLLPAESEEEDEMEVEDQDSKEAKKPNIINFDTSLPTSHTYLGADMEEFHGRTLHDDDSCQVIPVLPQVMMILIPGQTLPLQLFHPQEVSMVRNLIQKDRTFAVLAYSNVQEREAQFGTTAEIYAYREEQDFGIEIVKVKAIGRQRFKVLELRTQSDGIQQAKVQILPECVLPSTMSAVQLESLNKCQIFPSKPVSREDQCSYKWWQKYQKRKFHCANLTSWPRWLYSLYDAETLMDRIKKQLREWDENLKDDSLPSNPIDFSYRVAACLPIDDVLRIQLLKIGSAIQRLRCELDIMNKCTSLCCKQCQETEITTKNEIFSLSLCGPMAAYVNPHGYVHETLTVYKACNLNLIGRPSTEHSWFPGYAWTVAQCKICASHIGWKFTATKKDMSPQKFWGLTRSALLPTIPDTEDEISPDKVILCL
T1 sequence (Q16531 whole entry partner): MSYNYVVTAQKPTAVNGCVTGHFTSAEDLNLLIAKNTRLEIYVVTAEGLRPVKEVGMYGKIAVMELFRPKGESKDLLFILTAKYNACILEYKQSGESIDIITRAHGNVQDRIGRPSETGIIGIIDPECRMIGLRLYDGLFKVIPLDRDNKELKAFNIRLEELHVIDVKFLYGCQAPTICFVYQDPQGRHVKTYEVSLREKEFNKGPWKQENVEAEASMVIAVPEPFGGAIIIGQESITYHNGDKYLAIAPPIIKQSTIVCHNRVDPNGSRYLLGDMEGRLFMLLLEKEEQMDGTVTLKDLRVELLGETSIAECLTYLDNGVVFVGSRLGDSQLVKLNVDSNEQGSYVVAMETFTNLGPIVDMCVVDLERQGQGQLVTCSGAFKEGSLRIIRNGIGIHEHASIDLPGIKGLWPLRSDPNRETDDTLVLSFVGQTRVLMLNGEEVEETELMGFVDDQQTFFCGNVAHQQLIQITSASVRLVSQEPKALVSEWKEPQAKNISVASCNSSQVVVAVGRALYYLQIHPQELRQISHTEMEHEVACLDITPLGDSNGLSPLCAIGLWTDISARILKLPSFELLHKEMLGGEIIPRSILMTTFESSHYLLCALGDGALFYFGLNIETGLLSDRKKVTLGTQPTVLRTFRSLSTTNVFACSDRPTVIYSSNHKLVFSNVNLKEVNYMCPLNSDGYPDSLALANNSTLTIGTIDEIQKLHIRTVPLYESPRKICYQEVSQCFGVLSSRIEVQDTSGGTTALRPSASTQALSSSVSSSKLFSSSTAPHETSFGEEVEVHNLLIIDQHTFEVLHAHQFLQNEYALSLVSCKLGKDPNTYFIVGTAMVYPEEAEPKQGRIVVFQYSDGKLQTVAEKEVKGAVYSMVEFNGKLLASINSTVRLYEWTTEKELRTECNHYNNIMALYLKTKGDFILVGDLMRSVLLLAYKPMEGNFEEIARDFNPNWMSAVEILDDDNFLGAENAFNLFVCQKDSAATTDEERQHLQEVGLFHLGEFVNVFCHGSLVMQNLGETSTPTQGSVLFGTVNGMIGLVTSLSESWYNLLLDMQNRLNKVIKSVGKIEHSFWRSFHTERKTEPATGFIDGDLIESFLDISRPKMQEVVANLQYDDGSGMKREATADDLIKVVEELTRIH

O=C1CCC(N2Cc3cc(O[C@@H]4CCCN(C5CC(F)(F)C5)C4)ccc3C2=O)C(=O)N1 (mixture of isomers) [Example 29, 3-(5-(((R)-1-(3,3-difluorocyclobutyl)piperidin-3-yl)oxy)-1-oxoisoindolin-2-yl)piperidine-2,6-dione]
remaining activity at 25 µM [1]: 69% | Dmax at 25 µM: 31% | DC50: 82 nM

CCN1C[C@H](C)C[C@@H](Oc2ccc3c(c2)CN(C2CCC(=O)NC2=O)C3=O)C1 (mixture of isomers) [Example 75-1, 3-(5-(((3R,5R)-1-ethyl-5-methylpiperidin-3-yl)oxy)-1-oxoisoindolin-2-yl)piperidine-2,6-dione]
Dmax: 86.6% | remaining activity at 25 µM: 13.4% | DC50: 0.9 nM

CCN1C[C@H](O)C[C@@H](Oc2ccc3c(c2)CN(C2CCC(=O)NC2=O)C3=O)C1 (mixture of isomers) [Example 34, rac-3-(5-(((3R,5R)-1-Ethyl-5-hydroxypiperidin-3-yl)oxy)-1-oxoisoindolin-2-yl)piperidine-2,6-dione]
Dmax: 80% | remaining activity at 25 µM: 20% | DC50: 15 nM

CCN1CC[C@H](C)[C@@H](Oc2ccc3c(c2)CN(C2CCC(=O)NC2=O)C3=O)C1 (mixture of isomers) [Example 35, rac-3-(5-(((3R,4S)-1-ethyl-4-methylpiperidin-3-yl)oxy)-1-oxoisoindolin-2-yl)piperidine-2,6-dione]
Dmax: 31.9% | remaining activity at 25 µM: 68.1% | DC50: 26 nM

CCN1CCC[C@@H](Oc2ccc3c(c2)CN(C2CCC(=O)NC2=O)C3=O)[C@H]1C (mixture of isomers) [Example 44, rac-3-(5-(((2R,3R)-1-ethyl-2-methylpiperidin-3-yl)oxy)-1-oxoisoindolin-2-yl)piperidine-2,6-dione]
Dmax: 15.8% | remaining activity at 25 µM: 84.2% | DC50: 60 nM

CCN1C[C@@H](C)C[C@@H](Oc2ccc3c(c2)CN(C2CCC(=O)NC2=O)C3=O)C1 (mixture of isomers) [Example 45, rac-3-(5-(((3R,5S)-1-ethyl-5-methylpiperidin-3-yl)oxy)-1-oxoisoindolin-2-yl)piperidine-2,6-dione]
Dmax: 43.7% | remaining activity at 25 µM: 56.3% | DC50: 7.6 nM

CCN1CC[C@@H](C)[C@@H](Oc2ccc3c(c2)CN(C2CCC(=O)NC2=O)C3=O)C1 (mixture of isomers) [Example 46, rac-3-(5-(((3R,4R)-1-ethyl-4-methylpiperidin-3-yl)oxy)-1-oxoisoindolin-2-yl)piperidine-2,6-dione]
remaining activity at 25 µM: 101% | DC50: > 25000 nM

CCN1C[C@@H](O)C[C@@H](Oc2ccc3c(c2)CN(C2CCC(=O)NC2=O)C3=O)C1 (mixture of isomers) [Example 47, rac-3-(5-(((3R,5S)-1-ethyl-5-hydroxypiperidin-3-yl)oxy)-1-oxoisoindolin-2-yl)piperidine-2,6-dione]
Dmax: 22.8% | remaining activity at 25 µM: 77.2% | DC50: 88 nM

CCN1C[C@H](C)C[C@@H](Oc2ccc3c(c2)CN(C2CCC(=O)NC2=O)C3=O)C1 (mixture of isomers) [Example 52, rac-3-(5-(((3R,5R)-1-Ethyl-5-methylpiperidin-3-yl)oxy)-1-oxoisoindolin-2-yl)piperidine-2,6-dione]
Dmax: 76.2% | remaining activity at 25 µM: 23.8% | DC50: 5.5 nM

CCN1CCC2(CCC2)C(Oc2ccc3c(c2)CN(C2CCC(=O)NC2=O)C3=O)C1 (racemic) [Example 54, rac-3-(5-((7-ethyl-7-azaspiro[3.5]nonan-5-yl)oxy)-1-oxoisoindolin-2-yl)piperidine-2,6-dione]
remaining activity at 25 µM: 102% | DC50: > 25000 nM

CCN1CC2CC(Oc3ccc4c(c3)CN(C3CCC(=O)NC3=O)C4=O)C1C2 (racemic) [Example 62, rac-3-(5-((2-ethyl-2-azabicyclo[2.2.1]heptan-6-yl)oxy)-1-oxoisoindolin-2-yl)piperidine-2,6-dione]
Dmax: 27.1% | remaining activity at 25 µM: 72.9% | DC50: 83 nM

CCN1C[C@@H]2C[C@@H]2[C@H](Oc2ccc3c(c2)CN(C2CCC(=O)NC2=O)C3=O)C1 (relative stereo) [Example 53, 3-(5-(((1R*,5S*,6S*)-3-ethyl-3-azabicyclo[4.1.0]heptan-5-yl)oxy)-1-oxoisoindolin-2-yl)piperidine-2,6-dione]
remaining activity at 25 µM [1]: 78.2% | Dmax at 25 µM: 21.8% | DC50: 71 nM

CCN1CC[C@H](F)[C@@H](Oc2ccc3c(c2)CN(C2CCC(=O)NC2=O)C3=O)C1 (relative stereo) [Example 55, 3-(5-(((3S*,4S*)-1-ethyl-4-fluoropiperidin-3-yl)oxy)-1-oxoisoindolin-2-yl)piperidine-2,6-dione]
Dmax: 44.9% | remaining activity at 25 µM: 55.1% | DC50: 26 nM

CCN1CC[C@@H](F)[C@H](Oc2ccc3c(c2)CN(C2CCC(=O)NC2=O)C3=O)C1 (relative stereo) [Example 56, 3-(5-(((3R*,4R*)-1-ethyl-4-fluoropiperidin-3-yl)oxy)-1-oxoisoindolin-2-yl)piperidine-2,6-dione]
Dmax: 16.2% | remaining activity at 25 µM: 83.8% | DC50: 950 nM

CCN1CC[C@@H](F)[C@@H](Oc2ccc3c(c2)CN(C2CCC(=O)NC2=O)C3=O)C1 (relative stereo) [Example 57, 3-(5-(((3S*,4R*)-1-ethyl-4-fluoropiperidin-3-yl)oxy)-1-oxoisoindolin-2-yl)piperidine-2,6-dione]
Dmax: 16.9% | remaining activity at 25 µM: 83.1% | DC50: 170 nM

CCN1CC[C@H](F)[C@H](Oc2ccc3c(c2)CN(C2CCC(=O)NC2=O)C3=O)C1 (relative stereo) [Example 58, 3-(5-(((3R*,4S*)-1-ethyl-4-fluoropiperidin-3-yl)oxy)-1-oxoisoindolin-2-yl)piperidine-2,6-dione]
Dmax: 60.7% | remaining activity at 25 µM: 39.3% | DC50: 4.9 nM

CCN1CC(Oc2ccc3c(c2)CN(C2CCC(=O)NC2=O)C3=O)CC2(CC2)C1 (single isomer, unassigned) [Example 18, 3-(5-((5-ethyl-5-azaspiro[2.5]octan-7-yl)oxy)-1-oxoisoindolin-2-yl)piperidine-2,6-dione]
WIZ Amax [1]: 61.38% | DC50: 20 nM | % degradation of WIZ (100 − Amax): 38.62%

CCN1CC(Oc2ccc3c(c2)CN(C2CCC(=O)NC2=O)C3=O)CC2(CC2)C1 (single isomer, unassigned) [Example 19, 3-(5-((5-ethyl-5-azaspiro[2.5]octan-7-yl)oxy)-1-oxoisoindolin-2-yl)piperidine-2,6-dione]
WIZ Amax [1]: 37.13% | DC50: 12 nM | % degradation of WIZ (100 − Amax): 62.87%

CCN1C[C@H]2C[C@H]2[C@H](Oc2ccc3c(c2)CN(C2CCC(=O)NC2=O)C3=O)C1 (single isomer, unassigned) [Example 20, 3-(5-(((1S*,5S*,6R*)-3-ethyl-3-azabicyclo[4.1.0]heptan-5-yl)oxy)-1-oxoisoindolin-2-yl)piperidine-2,6-dione]
remaining activity at 25 µM [1]: 75.9% | Dmax at 25 µM: 24.1% | DC50: 3750 nM

CCN1C[C@@H]2C[C@@H]2[C@@H](Oc2ccc3c(c2)CN(C2CCC(=O)NC2=O)C3=O)C1 (single isomer, unassigned) [Example 21, 3-(5-(((1R*,5R*,6S*)-3-ethyl-3-azabicyclo[4.1.0]heptan-5-yl)oxy)-1-oxoisoindolin-2-yl)piperidine-2,6-dione]
remaining activity at 25 µM [1]: 25.7% | Dmax at 25 µM: 74.3% | DC50: 3.5 nM

CCN1C[C@H]2C[C@H]2[C@@H](Oc2ccc3c(c2)CN(C2CCC(=O)NC2=O)C3=O)C1 (single isomer, unassigned) [Example 22, 3-(5-(((1S*,5R*,6R*)-3-ethyl-3-azabicyclo[4.1.0]heptan-5-yl)oxy)-1-oxoisoindolin-2-yl)piperidine-2,6-dione]
remaining activity at 25 µM [1]: 75.7% | Dmax at 25 µM: 24.4% | DC50: 83 nM

CCN1CCC(C)(C)C(Oc2ccc3c(c2)CN(C2CCC(=O)NC2=O)C3=O)C1 (single isomer, unassigned) [Example 48, 3-(5-((1-ethyl-4,4-dimethylpiperidin-3-yl)oxy)-1-oxoisoindolin-2-yl)piperidine-2,6-dione]
remaining activity at 25 µM: 102% | DC50: > 25000 nM

Reference: patent publication US12103919B2, “3-(5-oxy)-1-oxoisoindolin-2-yl)piperidine-2,6-dione derivatives and uses thereof” (NOVARTIS AG, priority 2021, dated 2024)
